Patent publication US10300058B2, “Tyrosine kinase inhibitor and uses thereof” (Xuanzhu Pharma Co., Ltd., priority 2014, dated 2019)
Each block holds one compound with its values, some of them ahead of it.

How the values were obtained:
[1] = Pharmacokinetics in nude mouse; assay type: in vivo; details: female, BALB/c nude, plasma
Protocol: Test animal: female nude mouse (BALB/c), weight: 20-25 g/mouse.
Solvent for intraveneous injection (iv): 5% DMSO+10% PEG400+85% (28% HP-β-CD)
Solvent for intragastric administration (po): 2% HPC+0.1% Tween 80
0.1283 mL and 0.1059 mL 1M hydrochloric acid solution were separately added to adjust pH to 4.
Compound 2, 27: Compound 27 (3.18 mg) and Compound 2 (3.17 mg) were weighed, respectively, and solvent for intraveneous injection was added to prepare a clear and transparent solution at a theoretical concentration of 1.0 mg/mL.
After homogeneous dispersion, a suspension at a theoretical concentration of 1.0 mg/mL was obtained.
Collection time point: 0.083 h, 0.25 h, 0.5 h, 1 h, 2 h, 4 h, 6 h, 8 h after administration.
60 μL whole blood was collected from intraocular canthus at each time point, and was centrifuged at 8000 r/min for 6 min in a low-temperature centrifuge to separate plasma; the plasma was stored in a refrigerator at −80° C.
The plasma sample of Compound 2 was analyzed by means of protein precipitation: 10 μL plasma was transferred to a 1.5 mL EP tube, 10 μL blank plasma was added, and the mixture was mixed homogeneously under vortexing. 200 μL internal standard (acetonitrile solution containing 25 ng/mL CNX-2006) was added; the resultant mixture was vortexted for 3 min, and then centrifuged at 12000 rpm for 5 min; 150 μL supernatant was accurately taken, to which 50 μL purified water was added. The resultant mixture was vortexed for 3 min and analyzed by LC-MS/MS.

[2] = test system: H1975 cell (EGFR-T790M/L858R double mutation); experiment: In vitro cytologic activity, Celltiter-Glo, H1975 cells; assay type: cell-based, human; details: for IC50: Homo sapiens, NCI-H1975, 72 h, 72 h, Celltiter-Glo
Protocol: (§1) 1.1 Preparation of Cell Suspension
(§2) Culture medium was removed from culture bottle;
(§3) PBS was added to wash the cells; • pancreatin was added for digestion, and the cells were collected by centrifugation; • the cells were resuspended in a culture medium containing 10% fetal bovine serum, counted and adjusted to a concentration of 2×10^4/mL or 3×10^4/mL (cell viability must be greater than 90%); • the cell suspension was added to a 96-well plate, at 100 μL for each well, i.e., 2000/well for H1975 cell; 3000/well for A431 cell; and • the cells were cultured at 37° C. in 5% CO2 incubator overnight.
(§4) Dilution of a compound in DMSO (or water for injection) • (1) The compound was 5-fold diluted with DMSO from 10 mM to 2 mM, and then 4-fold diluted from 2 mM, to get 10 concentrations; • High control (HC, control without compound inhibition): 0.5% DMSO; • Low control (LC, control with compound inhibition): 1000 nM.
(§5) i. To each well, 99 μL growth medium containing 10% FBS was added, and then 1 μL diluted compound was added, the total volume of the well was […], and the final concentration of the compound was measured.
(§6) The test plate was left at room temperature, and equilibrated for 30 min. 80 μL culture medium was discarded. 60 μL CTG reagent (Celltiter-Glo kit) was added, and shaked for 2 min in a fast shaker, and was placed at room temperature for 10 min. The values were read by Envision instrument.

[3] = test system: A431 cell (wild-type EGFR gene); experiment: In vitro cytologic activity, Celltiter-Glo, A431 cells; assay type: cell-based; details: Homo sapiens, A-431, 72 h
Protocol: as §1, §2, §3, §4, §5, §6

[4] = test system: H1975 human non-small cell lung cancer xenograft; experiment: Pharmacodynamics in vivo, H1975 xenograft tumor-bearing nude mice; design: species or system BALB/c nude mouse; details: PO; for TV (tumor volume) / Body weight After administration / Body weight Before administration: mean ± standard error
Description: Genus: Rodent, Line: BALB/c nude, age: 6-8 weeks, gender: female, body weight: 18-22 g. Provider of experimental animals: Beijing Ankaiyibo Biological Technology Co. Ltd., Production license No. SCXK(Jing) 2012-0009. Quality Certificate No. 11402400000256 […] The tumor cells in logarithmic growth phase were used in tumor inoculation in vivo. […] When the tumor grew into a volume of about 100 mm^3, the animals were grouped and administered, 8 mice per group. […] Test compound solutions were prepared immediately before administration every day. [table] Vernier caliper was used to measure the volume of tumor twice a week. The long diameter and short diameter of tumor were measured. The volume was calculated by the formula: volume=0.5×long diameter×short diameter^2. According to the measurement results, relative tumor volume (RTV) and relative tumor volume increasing rate (T/C) were calculated. RTV=Vt/V0, wherein Vt is the average value of tumor volume on day t after grouping and administration, V0 is the average value of tumor volume at the day when grouping. T/C=TRTV/CRTV×100%, wherein TRTV is the RTV in the treatment group, and CRTV is the RTV in the solvent control group. […] One-Way ANOVA test was carried out by SPSS17.0 statistic software. Tumor volume was analysed in statistics among groups. P<0.05 is indicative of significant difference.

EGFR T790M-L858R = EGFR T790M-L858R (Homo sapiens (Human), UniProt P00533, L858R/T790M); experiment: Mobility Shift Assay, in vitro enzyme-inhibiting activity, EGFR T790M-L858R; assay type: biochemical; details: Table 6
Protocol: (§7) 1. Preparation of Reagents
(§8) 2. Preparation of a Compound Solution
(§9) (1) To the second well of a 96-well plate, 5 μL 10 mM compound (dissolved in DMSO) was added, and 95 μL 100% DMSO was added to prepare 100 μL 0.5 mM compound.
(§10) (2) To other wells, 60 μL 100% DMSO was added. 20 μL compound from the second well was added to the third well, and 4-fold dilution was further performed to get 10 diluted concentrations.
(§11) (3) To the first well and the twelfth well of the 96-well plate, 100 μL 100% DMSO was separately added, and the two wells were used as control wells.
(§12) (4) 10 μL from each well of the 96-well plate was added to another 96-well plate, and 90 μL 1-fold kinase buffer was added.
(§13) (5) 5 μL from the 96-well plate was added to another 384-well plate, for example, transferred from A1 well of the 96-well plate to A1 and A2 wells of the 384-well plate, and transferred from A2 well of the 96-well plate to A3 and A4 wells of the 384-well plate, and so on.
(§14) To 384-well plate, 10 μL 2.5-fold enzyme solution was added, and incubated at room temperature for 10 min.
(§15) (5) Kinase reaction and stop
(§16) After incubation at 28° C. for a period of time (depending on kinase), 25 μL stop solution was added.
(§17) 4. Data on percent conversion was read by Caliper.
(§18) (1) Data on enzyme activity was obtained by Caliper program;
(§19) (2) Inhibition rate of enzyme activity was calculated from the data on enzyme activity by the following formula: Inhibition rate(%)=(maximal value−the measured value of a test compound)/(maximal value-minimal value)×100,
(§20) wherein, the maximal value represents the measured value of DMSO control; and the minimal value represents the measured value of blank control.
(§21) (3) Calculation of IC50 value by XLFit excel.

EGFR L858R = EGFR L858R (Homo sapiens (Human), UniProt P00533, L858R); experiment: Mobility Shift Assay, in vitro enzyme-inhibiting activity, EGFR L858R; assay type: biochemical; details: Table 6
Protocol: as §7, §8, §9, §10, §11, §12, §13, §14, §15, §16, §17, §18, §19, §20, §21

EGFR (d746-750) = EGFR (d746-750) (Homo sapiens (Human), UniProt P00533, DEL746-750); experiment: Mobility Shift Assay, in vitro enzyme-inhibiting activity, EGFR (d746-750); assay type: biochemical; details: Table 6
Protocol: as §7, §8, §9, §10, §11, §12, §13, §14, §15, §16, §17, §18, §19, §20, §21

EGFR T790M = EGFR T790M (Homo sapiens (Human), UniProt P00533, T790M); experiment: Mobility Shift Assay, in vitro enzyme-inhibiting activity, EGFR T790M; assay type: biochemical; details: Table 6
Protocol: as §7, §8, §9, §10, §11, §12, §13, §14, §15, §16, §17, §18, §19, §20, §21

wild-type EGFR (WT EGFR) = wild-type EGFR (WT EGFR) (Homo sapiens (Human), UniProt P00533); experiment: Mobility Shift Assay, in vitro enzyme-inhibiting activity, wild-type EGFR; assay type: biochemical; details: Table 6; Km ATP
Protocol: as §7, §8, §9, §10, §11, §12, §13, §14, §15, §16, §17, §18, §19, §20, §21

EGFR (d746-750)-T790M = EGFR (d746-750)-T790M (Homo sapiens (Human), UniProt P00533, DEL746-750/T790M); experiment: Mobility Shift Assay, in vitro enzyme-inhibiting activity, EGFR (d746-750)-T790M; assay type: biochemical; details: Table 6
Protocol: as §7, §8, §9, §10, §11, §12, §13, §14, §15, §16, §17, §18, §19, §20, §21

Chain of EGFR T790M-L858R (P00533 25-1210 T790M/L858R): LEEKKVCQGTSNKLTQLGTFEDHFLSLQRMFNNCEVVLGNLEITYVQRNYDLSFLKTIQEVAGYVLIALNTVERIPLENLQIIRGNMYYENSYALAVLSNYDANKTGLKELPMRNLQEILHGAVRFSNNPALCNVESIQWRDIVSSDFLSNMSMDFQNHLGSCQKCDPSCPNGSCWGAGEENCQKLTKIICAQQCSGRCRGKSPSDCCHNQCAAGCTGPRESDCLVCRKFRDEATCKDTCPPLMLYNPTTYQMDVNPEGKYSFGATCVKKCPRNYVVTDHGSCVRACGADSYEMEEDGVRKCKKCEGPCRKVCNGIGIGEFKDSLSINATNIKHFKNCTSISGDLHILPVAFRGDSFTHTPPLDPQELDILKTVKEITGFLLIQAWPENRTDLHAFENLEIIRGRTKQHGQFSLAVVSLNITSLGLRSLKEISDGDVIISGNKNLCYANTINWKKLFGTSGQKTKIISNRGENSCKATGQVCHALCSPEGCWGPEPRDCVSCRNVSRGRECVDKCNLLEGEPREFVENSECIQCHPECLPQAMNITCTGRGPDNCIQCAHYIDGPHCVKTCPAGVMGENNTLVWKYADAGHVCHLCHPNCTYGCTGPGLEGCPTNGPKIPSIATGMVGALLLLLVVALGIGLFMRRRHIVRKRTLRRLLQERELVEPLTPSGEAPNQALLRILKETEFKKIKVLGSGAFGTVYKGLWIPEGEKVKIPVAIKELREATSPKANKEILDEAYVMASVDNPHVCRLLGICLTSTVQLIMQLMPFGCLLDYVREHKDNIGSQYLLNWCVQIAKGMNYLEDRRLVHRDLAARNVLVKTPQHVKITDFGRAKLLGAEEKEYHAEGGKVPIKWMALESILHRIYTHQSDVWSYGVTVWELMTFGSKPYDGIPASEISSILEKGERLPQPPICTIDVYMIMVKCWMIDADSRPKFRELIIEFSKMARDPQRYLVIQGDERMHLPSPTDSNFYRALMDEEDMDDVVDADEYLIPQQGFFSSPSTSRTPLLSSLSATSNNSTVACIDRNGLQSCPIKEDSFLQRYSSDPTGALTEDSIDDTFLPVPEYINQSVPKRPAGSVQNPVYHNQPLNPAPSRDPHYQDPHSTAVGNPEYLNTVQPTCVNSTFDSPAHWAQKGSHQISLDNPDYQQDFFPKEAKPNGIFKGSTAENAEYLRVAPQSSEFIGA
Chain of EGFR T790M (P00533 25-1210 T790M): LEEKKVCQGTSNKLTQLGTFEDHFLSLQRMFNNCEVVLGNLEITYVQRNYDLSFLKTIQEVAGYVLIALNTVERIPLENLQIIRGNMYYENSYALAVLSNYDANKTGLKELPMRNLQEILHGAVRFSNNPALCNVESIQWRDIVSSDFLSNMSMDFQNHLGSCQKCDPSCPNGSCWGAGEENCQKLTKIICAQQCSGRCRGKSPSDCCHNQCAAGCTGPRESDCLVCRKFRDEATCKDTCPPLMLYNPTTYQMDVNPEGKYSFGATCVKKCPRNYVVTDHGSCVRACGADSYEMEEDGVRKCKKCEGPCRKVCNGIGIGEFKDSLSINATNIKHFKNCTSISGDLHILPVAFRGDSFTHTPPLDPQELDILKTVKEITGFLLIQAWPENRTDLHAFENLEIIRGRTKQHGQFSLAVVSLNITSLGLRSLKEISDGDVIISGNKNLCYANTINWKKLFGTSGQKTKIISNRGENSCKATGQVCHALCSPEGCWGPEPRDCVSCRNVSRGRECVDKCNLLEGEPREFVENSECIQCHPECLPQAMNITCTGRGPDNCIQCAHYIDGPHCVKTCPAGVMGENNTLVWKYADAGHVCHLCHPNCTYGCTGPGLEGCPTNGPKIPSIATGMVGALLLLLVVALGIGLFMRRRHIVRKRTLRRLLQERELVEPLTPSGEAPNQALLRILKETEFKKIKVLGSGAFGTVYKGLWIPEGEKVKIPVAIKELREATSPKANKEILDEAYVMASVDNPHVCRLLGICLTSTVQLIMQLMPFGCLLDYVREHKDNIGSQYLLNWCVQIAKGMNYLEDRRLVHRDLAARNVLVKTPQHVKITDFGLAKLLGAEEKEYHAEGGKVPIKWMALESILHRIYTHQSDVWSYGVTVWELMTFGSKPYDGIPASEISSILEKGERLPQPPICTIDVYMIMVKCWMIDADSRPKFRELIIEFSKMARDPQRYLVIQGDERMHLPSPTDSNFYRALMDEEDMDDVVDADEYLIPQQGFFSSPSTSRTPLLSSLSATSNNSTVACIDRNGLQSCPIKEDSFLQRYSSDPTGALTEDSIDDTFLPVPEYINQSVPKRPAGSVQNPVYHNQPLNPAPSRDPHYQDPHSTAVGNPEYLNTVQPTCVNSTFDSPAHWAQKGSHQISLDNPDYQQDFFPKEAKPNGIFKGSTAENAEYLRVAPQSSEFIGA
Chain of EGFR L858R (P00533 25-1210 L858R): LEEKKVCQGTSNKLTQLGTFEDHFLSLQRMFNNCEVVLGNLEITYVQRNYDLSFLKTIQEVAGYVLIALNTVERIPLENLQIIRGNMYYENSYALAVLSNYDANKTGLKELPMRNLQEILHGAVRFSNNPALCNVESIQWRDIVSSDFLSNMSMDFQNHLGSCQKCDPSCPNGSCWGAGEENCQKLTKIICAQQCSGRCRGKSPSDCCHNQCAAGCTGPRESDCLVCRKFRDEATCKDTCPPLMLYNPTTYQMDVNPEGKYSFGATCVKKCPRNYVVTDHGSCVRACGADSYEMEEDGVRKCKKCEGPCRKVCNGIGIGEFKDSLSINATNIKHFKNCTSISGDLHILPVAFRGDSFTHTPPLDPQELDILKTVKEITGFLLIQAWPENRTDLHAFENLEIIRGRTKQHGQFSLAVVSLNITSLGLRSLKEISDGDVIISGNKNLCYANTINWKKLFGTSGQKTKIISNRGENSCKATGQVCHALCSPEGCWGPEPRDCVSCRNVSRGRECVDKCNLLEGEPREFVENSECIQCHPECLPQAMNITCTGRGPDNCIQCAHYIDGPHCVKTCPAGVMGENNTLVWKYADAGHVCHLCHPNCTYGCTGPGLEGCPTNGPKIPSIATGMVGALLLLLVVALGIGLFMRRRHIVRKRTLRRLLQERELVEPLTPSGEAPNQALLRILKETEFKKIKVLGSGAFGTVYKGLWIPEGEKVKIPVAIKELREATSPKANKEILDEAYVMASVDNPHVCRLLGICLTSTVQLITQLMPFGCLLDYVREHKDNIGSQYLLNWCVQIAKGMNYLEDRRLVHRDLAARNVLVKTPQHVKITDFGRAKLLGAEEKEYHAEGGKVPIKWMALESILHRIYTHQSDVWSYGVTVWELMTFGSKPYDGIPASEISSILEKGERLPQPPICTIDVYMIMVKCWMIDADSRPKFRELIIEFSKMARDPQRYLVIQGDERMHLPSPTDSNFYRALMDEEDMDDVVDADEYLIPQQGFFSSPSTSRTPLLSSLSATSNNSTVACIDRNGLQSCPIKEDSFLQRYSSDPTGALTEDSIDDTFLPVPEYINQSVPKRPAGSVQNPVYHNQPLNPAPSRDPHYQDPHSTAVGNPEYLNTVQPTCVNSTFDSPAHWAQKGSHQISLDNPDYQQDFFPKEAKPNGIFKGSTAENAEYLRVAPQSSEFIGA
Chain of EGFR (d746-750)-T790M (P00533 other isoform, or with tags, fused parts or gaps T790M/del 1-668/del 746-750 limits assumed): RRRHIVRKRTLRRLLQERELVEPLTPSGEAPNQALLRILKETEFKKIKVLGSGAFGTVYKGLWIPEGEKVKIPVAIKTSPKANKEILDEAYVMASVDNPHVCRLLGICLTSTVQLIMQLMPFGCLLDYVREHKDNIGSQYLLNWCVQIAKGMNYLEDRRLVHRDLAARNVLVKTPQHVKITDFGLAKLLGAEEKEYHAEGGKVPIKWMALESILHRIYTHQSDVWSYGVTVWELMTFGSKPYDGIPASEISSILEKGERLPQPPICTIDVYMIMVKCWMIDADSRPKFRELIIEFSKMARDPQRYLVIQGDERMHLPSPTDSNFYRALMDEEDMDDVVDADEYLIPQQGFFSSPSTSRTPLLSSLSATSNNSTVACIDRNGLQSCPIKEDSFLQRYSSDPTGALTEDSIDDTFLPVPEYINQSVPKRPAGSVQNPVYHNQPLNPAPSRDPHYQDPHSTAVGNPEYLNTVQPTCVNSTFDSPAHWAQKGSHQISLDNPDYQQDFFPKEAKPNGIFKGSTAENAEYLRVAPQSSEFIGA
Chain of EGFR (d746-750) (P00533 other isoform, or with tags, fused parts or gaps del 1-668/del 746-750 limits assumed): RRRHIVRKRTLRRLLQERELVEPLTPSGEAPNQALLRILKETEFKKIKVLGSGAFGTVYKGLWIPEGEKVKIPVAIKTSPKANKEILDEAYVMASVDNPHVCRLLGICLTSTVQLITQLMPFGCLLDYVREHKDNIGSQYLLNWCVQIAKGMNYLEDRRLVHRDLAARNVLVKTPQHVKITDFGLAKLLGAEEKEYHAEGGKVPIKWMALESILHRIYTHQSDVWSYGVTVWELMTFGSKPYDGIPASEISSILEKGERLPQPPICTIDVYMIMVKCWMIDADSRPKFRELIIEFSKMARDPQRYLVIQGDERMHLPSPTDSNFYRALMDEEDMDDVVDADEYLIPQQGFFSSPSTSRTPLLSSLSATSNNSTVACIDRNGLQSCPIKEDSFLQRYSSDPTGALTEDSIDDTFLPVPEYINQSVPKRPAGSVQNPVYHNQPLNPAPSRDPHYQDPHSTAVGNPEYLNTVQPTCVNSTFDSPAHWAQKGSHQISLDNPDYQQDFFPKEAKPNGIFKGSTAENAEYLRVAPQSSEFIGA

SMILES: C=CC(=O)Nc1cccc(Nc2nc(Nc3ccc(N4CCN(C(C)=O)CC4)cc3OC)ncc2C(F)(F)F)c1 [CO-1686, reference compound]
AUC(0-t) ([1]; iv, 5 mg/kg): 4070 ng·h/mL
clearance ([1]; iv, 5 mg/kg): 20.5 mL/min/kg
AUC(0-t) ([1]; po, 13.2 mg/kg): 2380 ng·h/mL
bioavailability ([1]; po, 13.2 mg/kg, read-out: F (absolute bioavailability)): 22.1%
IC50 ([2]; Table 9): 107 nM
IC50 ([2]; Table 10, unit inferred): 465 nM
IC50 ([3]; Table 9): 911 nM
IC50 ([3]; Table 10, unit inferred): 2250 nM
TGI (tumor growth-inhibiting rate) ([4]; Table 17, 30 mg/kg): 38.8%
TV (tumor volume) ([4]; Table 17, 30 mg/kg, 19 days after inoculation): 666 ± 30 mm^3
Body weight After administration ([4]; Table 17, 30 mg/kg): 22.1 ± 0.3 g
Body weight Before administration ([4]; Table 17, 30 mg/kg): 20.6 ± 0.3 g
TGI (tumor growth-inhibiting rate) ([4]; Table 17, 100 mg/kg): 71.2%
TV (tumor volume) ([4]; Table 17, 100 mg/kg, 19 days after inoculation): 317 ± 44 mm^3
Body weight After administration ([4]; Table 17, 100 mg/kg): 21.5 ± 0.5 g
Body weight Before administration ([4]; Table 17, 100 mg/kg): 20.6 ± 0.4 g
TGI (tumor growth-inhibiting rate) ([4]; Table 18, 10 mg/kg, QD × 18): 30.8%
TV (tumor volume) ([4]; Table 18, 10 mg/kg, QD × 18, 23 days after inoculation): 729 ± 78 mm^3
Body weight After administration ([4]; Table 18, 10 mg/kg, QD × 18): 22.4 ± 0.5 g
Body weight Before administration ([4]; Table 18, 10 mg/kg, QD × 18): 20.7 ± 0.4 g
TGI (tumor growth-inhibiting rate) ([4]; Table 18, 30 mg/kg, QD × 18): 55.4%
TV (tumor volume) ([4]; Table 18, 30 mg/kg, QD × 18, 23 days after inoculation): 485 ± 65 mm^3
Body weight After administration ([4]; Table 18, 30 mg/kg, QD × 18): 22.4 ± 0.3 g
Body weight Before administration ([4]; Table 18, 30 mg/kg, QD × 18): 21.8 ± 0.3 g

IC50 (EGFR T790M-L858R; Km ATP): 3.3 nM
Selectivity WT/T790M-L858R (EGFR T790M-L858R; ratio of IC50): 71.5
IC50 (EGFR L858R; Km ATP): 35 nM
Selectivity WT/L858R (EGFR L858R; ratio of IC50): 6.7
IC50 (EGFR (d746-750); Km ATP): 28 nM
Selectivity WT/d746-750 (EGFR (d746-750); ratio of IC50): 8.4
IC50 (EGFR T790M; Km ATP): 3.5 nM
Selectivity (WT/T790M) (EGFR T790M; ratio of IC50): 67.4
IC50 (wild-type EGFR (WT EGFR)): 236 nM
IC50 ([2]; Table 10, unit inferred): 211 nM
IC50 ([3]; Table 10, unit inferred): 2500 nM
IC50 (EGFR (d746-750)-T790M; Km ATP, read-out: IC50 EGFR (d746-750)-T790M): 3.5 nM
Selectivity WT/(d746-750)-T790M (EGFR (d746-750)-T790M; ratio of IC50): 67.4
SMILES: C=CC(=O)Nc1cccc(Nc2nc(Nc3ccc(C4CCN(C)C(=O)C4)cc3OC)ncc2C(F)(F)F)c1 (centres unmarked) [Compound 21, N-(3-((2-((2-methoxy-4-(1-methyl-2-oxopiperidin-4-yl)phenyl)amino)-5-(trifluoromethyl)pyrimidin-4-yl)amino)phenyl)acrylamide]
Selectivity (A431/H1975) ([2]; Table 10, ratio of IC50): 11.9
